This note sets out measurements from US11647750B2, “Active compound combinations having insecticidal/acaricidal properties” (Bayer Aktiengesellschaft, priority 2017, dated 2023).

Like-named read-outs stand apart in the source and are kept apart here.

Assay type in all cases: in vivo
For test [1], the system named is Tetranychus urticae. Put plainly: Tetranychus urticae spray test, OP-resistant (French bean leaf disks). On the procedure:
(§1) • The expected efficacy of a given combination of two compounds is calculated as follows (see Colby, S. R., “Calculating Synergistic and antagonistic Responses of Herbicide Combinations”, Weeds 15, pp. 20-22, 1967): • If • X is the efficacy expressed in % mortality of the untreated control for test compound A at a concentration of m ppm respectively m g/ha, • Y is the efficacy expressed in % mortality of the untreated control for test compound B at a concentration of n ppm respectively n g/ha, • E is the efficacy expressed in % mortality of the untreated control using the mixture of A and B at m and n ppm respectively m and n g/ha, • then is
(§2) [formula] • If the observed insecticidal efficacy of the combination is higher than the one calculated as “E”, then the combination of the two compounds is more than additive, i.e. there is a synergistic effect.
Tetranychus urticae—Spray Test OP-Resistant
(§3) • Solvent: 78.0 parts by weight acetone 1.5 parts by weight dimethylformamide • Emulsifier: alkylarylpolyglycol ether
(§4) To produce a suitable preparation of active compound, 1 part by weight of active compound is mixed with the stated amount of solvents and is diluted with water, containing an emulsifier concentration of 1000 ppm, to the desired concentration. To produce a suitable preparation of a spore suspension the spores are diluted with emulsifier containing water to the desired concentration. Further test concentrations are prepared by dilution with emulsifier containing water.
French bean (Phaseolus vulgaris) leaf disks infected with all instars of the two spotted spidermite (Tetranychus urticae), are sprayed with a preparation of the active ingredient of the desired concentration.
After the specified period of time, mortality in % is determined. 100% means all spider mites have been killed and 0% means none of the spider mites have been killed. The mortality values determined thus are recalculated using the Colby-formula (see above).

The subject of the next test is Myzus persicae. Kind of test: Myzus persicae spray test (Chinese cabbage leaf disks). The following applies: mortality. Here is the method: as §1, §2
Myzus persicae Spray Test
as §3, §4
Chinese cabbage (Brassica pekinensis) leaf disks infected with all instars of the green peach aphid (Myzus persicae), are sprayed with a preparation of the active ingredient of the desired concentration.
After the specified period of time, mortality in % is determined. 100% means all aphids have been killed; 0% means none of the aphids have been killed. The mortality values determined thus are recalculated using the Colby-formula (see above).

Test [2] has as its system Tetranychus urticae. Kind of test: Tetranychus urticae spray test; OP-resistant (bean plants). The following applies: mortality. Here is the method:
as §1, §2
Tetranychus urticae Spray Test; OP-Resistant
Solvent: 7 parts by weight of dimethylformamide
Emulsifier: alkylaryl polyglycol ether
To produce a suitable preparation of active compound, 1 part by weight of active compound is mixed with the stated amount of solvent and is diluted with water, containing an emulsifier concentration of 1000 ppm, to the desired concentration. Further test concentrations are prepared by dilution with emulsifier containing water.
Bean plants (Phaseolus vulgaris) which are heavily infested with all stages of the two-spotted spider mite (Tetranychus urticae) are treated by being sprayed with the preparation of the active compound of the desired concentration.
After the specified period of time mortality in % is determined. 100% means all the spider mites have been killed and 0% means none of the spider mites have been killed. The mortality values determined thus are recalculated using the Colby-formula (see above).

Another test concerns Meloidogyne incognita. Put plainly: Meloidogyne incognita test (gall formation on salad roots). The following applies: nematicidal activity on the basis of gall formation. On the procedure: as §1, §2
Meloidogyne incognita—Test
Solvent: 125.0 parts by weight of acetone
To produce a suitable preparation of active compound, 1 part by weight of active compound is mixed with the stated amount of solvent, and the concentrate is diluted with water to the desired concentration. To produce a suitable preparation of a spore suspension the spores are diluted with water to the desired concentration.
Vessels are filled with sand, a solution of the active ingredient, a suspension containing eggs and larvae of the southern root-knot nematode (Meloidogyne incognita) and salad seeds. The salad seeds germinate and the seedlings grow. Galls develop in the roots.
After the specified period of time nematicidal activity is determined on the basis of the percentage of gall formation. 100% means no galls were found and 0% means the number of galls found on the roots of the treated plants was equal to that in untreated control plants.

The mark [3] stands for this setting: Tetranychus urticae, foliar, 144 h, read-out: Efficacy in % after 6 days.
Where [4] appears, read: Tetranychus urticae, foliar, 144 h, 0.5 g ai/ha, mortality, 6 days, read-out: Efficacy in % after 6 days.
Setting [5] is: Tetranychus urticae, foliar, 144 h, 0.6 g ai/ha, mortality, 6 days, read-out: Efficacy in % after 6 days.

Turning to `COCCOC(=O)C(C#N)(C(=O)c1ccccc1C(F)(F)F)c1ccc(C(C)(C)C)cc1` (racemic) [Cyflumetofen, 2-methoxyethyl (RS)-2-(4-tert-butylphenyl)-2-cyano-3-oxo-3-(α,α,α-trifluoro-o-tolyl)propionate], the “Efficacy in % after 2 days” value with Tetranychus urticae [1] (0.5 g ai/ha, mortality) is on record as 0%. Also, the pest or weed control at 0.5 g/ha with Tetranychus urticae [1] (setting [3]) amounted to 0%.

Consider `Cc1cc(F)c(N=C2SCC(=O)N2CC(F)(F)F)cc1[S+]([O-])CC(F)(F)F` (centres unmarked) [Cpd of formula (I)], for which the “Efficacy in % after 6 days” value in the test with Myzus persicae (2 g ai/ha) and in the test with Myzus persicae (8 g ai/ha) was 0% in each case. The “Efficacy in % after 3 days” value in the test with Tetranychus urticae [2] (0.4 ppm) amounted to 0%. The “Efficacy in % after 7 days” value with Tetranychus urticae [2] (0.8 ppm) turned out to be 30%. Further, the “Efficacy in % after 14 days” value in the test with Meloidogyne incognita (1 ppm) is recorded as 0%; with Meloidogyne incognita (2 ppm) it was 70%. Moreover, the “Efficacy in % after 2 days” value turned out to be 0% with Tetranychus urticae [1] (0.125 g ai/ha, mortality) and 0% with Tetranychus urticae [1] (0.5 g ai/ha, mortality). Besides, in the test on Tetranychus urticae [1] (Tetranychus urticae, foliar, 144 h, 0.125 g ai/ha, mortality, 6 days, read-out: Efficacy in % after 6 days), the pest or weed control at 0.125 g/ha was 0%. Further, the pest or weed control at 0.3 g/ha with Tetranychus urticae [1] (Tetranychus urticae, foliar, 144 h, 0.3 g ai/ha, mortality, 6 days, read-out: Efficacy in % after 6 days) is 0%. In the test with Tetranychus urticae [1] (setting [4]), the pest or weed control at 0.5 g/ha worked out at 0%. In addition, the pest or weed control at 0.6 g/ha in the test on Tetranychus urticae [1] (setting [5]) came to 0%.

With `Cc1cc(Cl)cc(C)c1C1=C(O)C2(CCC3(CC2)OCCO3)NC1=O` [Cpd of formula (IIa)], the “Efficacy in % after 6 days” value in the test on Myzus persicae (16 g ai/ha) was determined as 0%. Besides, the “Efficacy in % after 2 days” value in the test on Tetranychus urticae [1] (1 g ai/ha, mortality) was found to be 0%. For the same compound, the pest or weed control at 1 g/ha in the test with Tetranychus urticae [1] (Tetranychus urticae, foliar, 144 h, 1 g ai/ha, mortality, 6 days, read-out: Efficacy in % after 6 days) came to 0%.

For `Cc1ccc(-c2ccc(F)cc2)c(C)c1C1=C(O)C2(CCOCC2)NC1=O` [Cpd of formula (IIb)], the “Efficacy in % after 2 days” value in the test with Tetranychus urticae [1] (0.5 g ai/ha, mortality) came to 0%. Also, the pest or weed control at 0.5 g/ha with Tetranychus urticae [1] (setting [4]) was 0%.

For the compound `Cc1nn(C)c(/C(OC(=O)C(C)(C)C)=C(\C#N)c2ccc(C(C)(C)C)cc2)c1C` [Cyenopyrafen, (E)-2-(4-tert-butylphenyl)-2-cyano-1-(1,3,4-trimethylpyrazol-5-yl)vinyl 2,2-dimethylpropionate], the “Efficacy in % after 6 days” value with Myzus persicae (0.5 g ai/ha) and in the test with Myzus persicae (2 g ai/ha) was 0% throughout. In the test with Tetranychus urticae [1] (setting [3]), the pest or weed control at 0.125 g/ha worked out at 0%.

`COC(c1ccc(N(C(=O)c2c(C)nn(C)c2C)C(=O)C(C)C)cc1CC(C)C)(C(F)(F)F)C(F)(F)F` [Pyflubumide, 3′-isobutyl-N-isobutyryl-1,3,5-trimethyl-4′-[2,2,2-trifluoro-1-methoxy-1-(trifluoromethyl)ethyl]pyrazole-4-carboxanilide]: the “Efficacy in % after 2 days” value in the test with Tetranychus urticae [1] (0.0125 g ai/ha, mortality) turned out to be 0%. For the same compound, in the test with Tetranychus urticae [1] (Tetranychus urticae, foliar, 144 h, 0.0125 g ai/ha, mortality, 6 days, read-out: Efficacy in % after 6 days), the pest or weed control at 0.0125 g/ha amounted to 0%. The pest or weed control at 0.6 g/ha with Tetranychus urticae [1] (setting [5]) amounted to 70%.

As to `Cc1cc(C)c(C2=C(OC(=O)CC(C)(C)C)C3(CCCC3)OC2=O)c(C)c1` [Spiromesifen, 3-mesityl-2-oxo-1-oxaspiro[4.4]non-3-en-4-yl 3,3-dimethylbutyrate], the “Efficacy in % after 2 days” value with Tetranychus urticae [1] (0.05 g ai/ha, mortality) came to 0%. For the same compound, in the test with Tetranychus urticae [1] (setting [3]), the pest or weed control at 0.05 g/ha amounted to 0% and the pest or weed control at 0.6 g/ha came to 0%.

As for `CCOC(=O)OC1=C(c2cc(C)ccc2C)C(=O)N[C@]12CC[C@@H](OC)CC2` [Spirotetramat, cis-4-(ethoxycarbonyloxy)-8-methoxy-3-(2,5-xylyl)-1-azaspiro[4.5]dec-3-en-2-one], in the test on Tetranychus urticae [2] (2 ppm), the “Efficacy in % after 7 days” value came out at 40%. The “Efficacy in % after 14 days” value in the test on Meloidogyne incognita (30 ppm) and in the test on Meloidogyne incognita (60 ppm) was 0% in each case. The “Efficacy in % after 2 days” value with Tetranychus urticae [1] (0.05 g ai/ha, mortality) amounted to 0%. For the same compound, the pest or weed control at 0.05 g/ha with Tetranychus urticae [1] (setting [3]) amounted to 0%.

On to abamectin, for which the “Efficacy in % after 3 days” value with Tetranychus urticae [2] (0.01 ppm) was found to be 0%. Further, in the test on Tetranychus urticae [1] (0.00125 g ai/ha, mortality), the “Efficacy in % after 2 days” value came to 0%. The “Efficacy in % after 6 days” value in the test on Tetranychus urticae [1] (0.015 g ai/ha, mortality, 6 days) was determined as 70%; in the test on Tetranychus urticae [1] (0.03 g ai/ha, mortality, 6 days), 70%.

In the case of emamectin benzoate [Emamectin-benzoate], the “Efficacy in % after 2 days” value in the test with Tetranychus urticae [1] (0.003125 g ai/ha, mortality) worked out at 0%; in the test with Tetranychus urticae [1] (0.0125 g ai/ha, mortality), 0%. The “Efficacy in % after 6 days” value is on record as 0% in the test with Tetranychus urticae [1] (0.003125 g ai/ha, mortality, 6 days); 0% in the test with Tetranychus urticae [1] (0.0125 g ai/ha, mortality, 6 days); 0% with Tetranychus urticae [1] (0.15 g ai/ha, mortality, 6 days).

Consider milbemectin, for which the “Efficacy in % after 6 days” value was 0% with Tetranychus urticae [1] (0.75 g ai/ha, mortality, 6 days) and 0% in the test with Tetranychus urticae [1] (1.5 g ai/ha, mortality, 6 days).

As to spinosad, in the test with Tetranychus urticae [1] (0.03125 g ai/ha, mortality), the “Efficacy in % after 2 days” value was 0%. Further, the “Efficacy in % after 6 days” value in the test with Tetranychus urticae [1] (0.03125 g ai/ha, mortality, 6 days) was found to be 0%; with Tetranychus urticae [1] (0.125 g ai/ha, mortality, 6 days) it was 0%.
